From US12364696B2, “Treatment of autoimmune disease” (priority 2019, dated 2025)
Where two headings read alike, the source gives them in different places.

What was measured:
[1] = test system: patients with chronic, refractory, moderate to severe alopecia areata; test: Retrospective clinical study of orally administered and sublingual tofacitinib, 7-point assessment scale of hair regrowth; type: in vivo, human
[2] = oral tofacitinib; cited from earlier work
[3] = test system: patients with alopecia areata; conditions: oral tofacitinib 5 mg twice daily for 3 months; cited from earlier work
[4] = test system: patients with lichen planopilaris and frontal fibrosing alopecia; conditions: for Patient-reported response: ceased treatment
[5] = test system: folliculitis decalvans and tufted folliculitis; test: Additional case studies (data not shown); type: in vivo, human; conditions: sublingual
[6] = orally administered, 18 months, n = 7, mean dose 6.07 mg
[7] = prolonged disease duration >10 years, n = 38
[8] = sublingual, 3 months, n = 88, mean dose 3.73 mg
[9] = sublingual, 6 months, n = 74, mean dose 4.48 mg
[10] = sublingual, 9 months, n = 53, mean dose 4.71 mg
[11] = sublingual, 12 months, n = 34, mean dose 6.25 mg
[12] = sublingual, 15 months, n = 15, mean dose 6.81 mg
[13] = sublingual, 18 months, n = 3, mean dose 5.00 mg
[14] = tofacitinib monotherapy, n = 56

C[C@@H]1CCN(C(=O)CC#N)C[C@@H]1N(C)c1ncnc2[nH]ccc12 [tofacitinib]
Total responders, number of patients ([1]; orally administered, 15 months, n = 16, mean dose 6.90 mg): 12 | Score +1, number of patients [1, 6]: 0 | Score +2, number of patients [1, 6]: 1 | Score +3, % of patients [1, 6]: 71% | Score +3, number of patients [1, 6]: 5 | Total non-responders, % of patients [1, 6]: 14% | Total non-responders, number of patients [1, 6]: 1 | Total responders, % of patients [1, 6]: 86% | Total responders, number of patients [1, 6]: 6 | Secondary treatment failure, number of patients ([1]; out of 28 who experienced a relapse while on treatment): Five | Patients who achieved a CR, % ([1]; patients with AT/AU): 37% | Patients who achieved a CR, number ([1]; patients with AT/AU): 13 | Patients who achieved a response, % ([1]; patients with AT/AU): 71% | Patients who achieved a response, number ([1]; patients with AT/AU): 25 | Early responders, number of patients [1, 7]: 21 | Late responders, number of patients [1, 7]: 10 | Never responded, number of patients [1, 7]: 6 | Patients who had regrowth [1, 7]: 81.6% | Relapsed, number of patients [1, 7]: 2 | Score +1, number of patients [1, 8]: 21 | Score +2, number of patients [1, 8]: 20 | Score +3, % of patients [1, 8]: 9% | Score +3, number of patients [1, 8]: 8 | Total non-responders, % of patients [1, 8]: 46.5% | Total non-responders, number of patients [1, 8]: 41 | Total responders, % of patients [1, 8]: 53% | Total responders, number of patients [1, 8]: 49 | Score +1, number of patients [1, 9]: 18 | Score +2, number of patients [1, 9]: 17 | Score +3, % of patients [1, 9]: 20% | Score +3, number of patients [1, 9]: 15 | Total non-responders, % of patients [1, 9]: 32% | Total non-responders, number of patients [1, 9]: 24 | Total responders, % of patients [1, 9]: 68% | Total responders, number of patients [1, 9]: 50 | Score +1, number of patients [1, 10]: 13 | Score +2, number of patients [1, 10]: 12 | Score +3, % of patients [1, 10]: 26% | Score +3, number of patients [1, 10]: 14 | Total non-responders, % of patients [1, 10]: 26% | Total non-responders, number of patients [1, 10]: 14 | Total responders, % of patients [1, 10]: 74% | Total responders, number of patients [1, 10]: 39 | Score +1, number of patients [1, 11]: 8 | Score +2, number of patients [1, 11]: 11 | Score +3, % of patients [1, 11]: 32% | Score +3, number of patients [1, 11]: 11 | Total non-responders, % of patients [1, 11]: 15% | Total non-responders, number of patients [1, 11]: 5 | Total responders, % of patients [1, 11]: 85% | Total responders, number of patients [1, 11]: 29 | Score +1, number of patients [1, 12]: 3 | Score +2, number of patients [1, 12]: 5 | Score +3, % of patients [1, 12]: 40% | Score +3, number of patients [1, 12]: 6 | Total non-responders, % of patients [1, 12]: 7% | Total non-responders, number of patients [1, 12]: 1 | Total responders, % of patients [1, 12]: 93% | Total responders, number of patients [1, 12]: 14 | Score +1, number of patients [1, 13]: 0 | Score +2, number of patients [1, 13]: 0 | Score +3, % of patients [1, 13]: 100% | Score +3, number of patients [1, 13]: 3 | Total non-responders, number of patients [1, 13]: 0 | Total responders, % of patients [1, 13]: 100% | Total responders, number of patients [1, 13]: 3 | Early responders, % of patients [1, 14]: 51.7% | Early responders, number of patients [1, 14]: Twenty-nine | Late responders, % of patients [1, 14]: 19.6% | Late responders, number of patients [1, 14]: 11 | Patients who achieved a CR [1, 14]: Eighteen | Primary failures, % of patients [1, 14]: 26.7% | Primary failures, number of patients [1, 14]: 15 | Secondary failure, number of patients [1, 14]: 1 | Reported elimination half-life [2]: 3 h | Patients achieving a 50% or greater reduction in SALT score [3]: 32% | Side effects ([4]; Patient 1): No side effects | Activity of lichen planopilaris ([4]; Patient 1, sublingual 5-10 mg daily, July 2019 to February 2020, with concurrent medications): controlled | Side effects ([4]; Patient 2): No side effects | Symptoms of lichen planopilaris ([4]; Patient 2, up to 5 mg in the morning and 2.5 mg at night, with concurrent medications): symptom-free | Patient-reported response ([4]; Patient 3, lichen planopilaris, 2 mg twice daily increased to 7.5 mg): not happy with the response | Patient-reported response ([4]; Patient 4, lichen planopilaris/frontal fibrosing alopecia, 2.5 mg twice daily for 12 months): not happy with the response | Effect on symptoms of lichen planopilaris and frontal fibrosing alopecia ([4]; series of case studies, sublingual): demonstrated activity at reducing the symptoms | Usefulness for treatment of folliculitis decalvans and tufted folliculitis [5]: useful
